According to patent US7868013B2, “Cycloalkyl substituted pyrimidinediamine compounds and their uses” (Rigel Pharmaceuticals, Inc., priority 2004, dated 2011):
Structures can show the parent of a compound that is named as a salt. Where two headings read alike, the source gives them in different places.

Columns and labels:
[1] = system: A549 (lung carcinoma); assay: In vitro antiproliferation assay, A549 cells (TABLE 1 6 point assay; TABLE 2); format: cell-based
Protocol: (§1) Certain compounds were tested against other cell types for their ability to inhibit proliferation in standard antiproliferation assays.

[2] = system: H1299 (non-small cell lung carcinoma); assay: In vitro antiproliferation assay, H1299 cells (TABLE 1 6 point assay; TABLE 2); format: cell-based
Protocol: as §1

[3] = Homo sapiens, A549, 6 point assay, A549 cells, read-out: IC50, A549 cells
[4] = Homo sapiens, NCI-H1299, 6 point assay, H1299 cells, read-out: IC50, H1299 cells
[5] = 6 point assay, A549 cells, read-out: IC50, A549 cells
[6] = 6 point assay, H1299 cells, read-out: IC50, H1299 cells

| IC50 [1, 3] [nM] | IC50 [2, 4] [nM] | Compound | also measured |
| --- | --- | --- | --- |
|  |  | Cc1cc(Nc2ncc(F)c(N[C@H]3[C@@H](C(=O)NC4CCC4)[C@@H]4C=C[C@H]3C4)n2)ccc1N1CCN(C)CC1 [compound 192, (1R,2R,3S,4S)-N4-[3-(N-Cyclobutyl)aminocarbonylbicyclo[2.2.1]hept-5-en-2-yl]-5-fluoro-N2-[3-methyl-4-(4-methylpiperazin-1-yl)phenyl]-2,4-pyrimidinediamine] | IC50 ([1]; Homo sapiens, A549, A549 cells, 6 point assay, read-out: A549, 6pt (IC50, inhibition of proliferation)): ≤ 100 nM; IC50 ([2]; Homo sapiens, NCI-H1299, H1299 cells, 6 point assay, read-out: H1299, 6pt (IC50, inhibition of proliferation)): ≤ 100 nM |
| > 10000 | 1000 to 10000 | Cc1cc(Nc2ncc(F)c(N[C@@H]3[C@H](C(=O)NC4CCC4)[C@H]4C=C[C@@H]3C4)n2)ccc1N1CCN(C)CC1 [compound 193, (1S,2S,3R,4R)-N4-[3-(N-Cyclobutyl)aminocarbonylbicyclo[2.2.1]hept-5-en-2-yl]-5-fluoro-N2-[3-methyl-4-(4-methylpiperazin-1-yl)phenyl]-2,4-pyrimidinediamine] |  |
| 100 to 1000 | 100 to 1000 | CN1CCN(c2ccc(Nc3ncc(F)c(NC4CCCC4C(N)=O)n3)cc2)CC1 (centres unmarked) [compound 194, N4-(2-Carboxamidocyclopentyl)-5-fluoro-N2-[4-(4-methylpiperazino)phenyl]-2,4-pyrimidinediamine] |  |
| 100 to 1000 | 100 to 1000 | CN1CCN(c2cccc(Nc3ncc(F)c(NC4CCCC4C(N)=O)n3)c2)CC1 (centres unmarked) [compound 195] |  |
| 100 to 1000 | 100 to 1000 | CC(=O)N1CCN(c2ccc(Nc3ncc(F)c(NC4CCCC4C(N)=O)n3)cc2)CC1 (centres unmarked) [compound 196, N2-[4-(4-Acetylpiperazino)phenyl]-N4-(2-carboxamidocyclopentyl)-5-fluoro-2,4-pyrimidinediamine] |  |
| 1000 to 10000 | 100 to 1000 | CC(=O)N1CCN(c2cccc(Nc3ncc(F)c(NC4CCCC4C(N)=O)n3)c2)CC1 (centres unmarked) [compound 197, N2-[3-(4-Acetylpiperazino)phenyl]-N4-(2-carboxamidocyclopentyl)-5-fluoro-2,4-pyrimidinediamine] |  |
| 100 to 1000 | 100 to 1000 | NC(=O)C1CCCC1Nc1nc(Nc2ccc(N3CCOCC3)cc2)ncc1F (centres unmarked) [compound 198, N4-(2-Carboxamidocyclopentyl)-5-fluoro-N2-(4-morpholinophenyl)-2,4-pyrimidinediamine] |  |
| 100 to 1000 | 100 to 1000 | CCOC(=O)N1CCN(c2ccc(Nc3ncc(F)c(NC4CCCC4C(N)=O)n3)cc2)CC1 (centres unmarked) [compound 199, N4-(2-Carboxamidocyclopentyl)-N2-[4-(4-ethoxycarbonylpiperazino)phenyl]-5-fluoro-2,4-pyrimidinediamine] |  |
| 100 to 1000 | 1000 to 10000 | NC(=O)C1CCCC1Nc1nc(Nc2cccc(N3CCOCC3)c2)ncc1F (centres unmarked) [compound 200, N4-(2-Carboxamidocyclopentyl)-5-fluoro-N2-(3-morpholinophenyl)-2,4-pyrimidinediamine] |  |
| 100 to 1000 | 1000 to 10000 | CCOC(=O)N1CCN(c2cccc(Nc3ncc(F)c(NC4CCCC4C(N)=O)n3)c2)CC1 (centres unmarked) [compound 201, N4-(2-Carboxamidocyclopentyl)-N2-[3-(4-ethoxycarbonylpiperazino)phenyl]-5-fluoro-2,4-pyrimidinediamine] |  |
| 100 to 1000 | 100 to 1000 | CN1CCN(c2ccc(Nc3ncc(F)c(NC4CCCC4C(N)=O)n3)cc2Cl)CC1 (centres unmarked) [compound 202, N4-(2-Carboxamidocyclopentyl)-N2-[3-chloro-4-(4-methylpiperazino)phenyl]-5-fluoro-2,4-pyrimidinediamine] |  |
|  |  | CN1CCN(c2ccc(Nc3ncc(F)c(NC4CCCC4C(N)=O)n3)cc2)CC1 (centres unmarked) [compound 203, N4-(2-Carboxamidocyclopentyl)-5-fluoro-N2-[4-(4-methylpiperazino)phenyl]-2,4-pyrimidinediamine Monohydrochloride Salt] | IC50 [1, 5]: 100 to 1000 nM; IC50 [2, 6]: 100 to 1000 nM |
| 100 to 1000 | 1000 to 10000 | CN1CCN(c2ccc(Nc3ncc(F)c(NC4CCCC4C(N)=O)n3)cc2C(F)(F)F)CC1 (stereo not drawn) [compound 204, (cis)-N4-(2-Carboxamidocyclopent-1-yl)-5-fluoro-N2-[4-(4-methylpiperazino)-3-trifluoromethylphenyl]-1,4-pyrimidinediamine] |  |
|  |  | CN1CCN(c2ccc(Nc3ncc(F)c(NC4CCCC4C(N)=O)n3)cc2Cl)CC1 (stereo not drawn) [compound 205, (cis)-N4-(2-Carboxamidocyclopent-1-yl)-N2-[3-chloro-4-(4-methylpiperazino)phenyl]-5-fluoro-2,4-pyrimidinediamine] | IC50 [1, 5]: 100 to 1000 nM; IC50 [2, 6]: 100 to 1000 nM |
| 100 to 1000 | 100 to 1000 | Cc1cc(Nc2ncc(F)c(NC3CCCC3C(N)=O)n2)ccc1N1CCN(C)CC1 (stereo not drawn) [compound 206, (cis)-N4-(2-Carboxamidocyclopent-1-yl)-5-fluoro-N2-[3-methyl-4-(4-methylpiperazino)phenyl]-2,4-pyrimidinediamine] | IC50 ([1]; Homo sapiens, A549, A549, read-out: In Vitro IC50): ≤ 1000 nM |
|  |  | CN1CCN(c2ccc(Nc3ncc(F)c(NC4CCCC4C(N)=O)n3)cc2C(F)(F)F)CC1 (stereo not drawn) [compound 207, (cis)-N4-(2-Carboxamidocyclopent-1-yl)-5-fluoro-N2-[4-(4-methylpiperazino)-3-trifluoromethylphenyl]-2,4-pyrimidinediamine Bis Hydrogen Chloride Salt] | IC50 [1, 5]: 100 to 1000 nM; IC50 [2, 6]: 1000 to 10000 nM |
| 1000 to 10000 | 1000 to 10000 | COC(=O)[C@H]1CCC[C@@H]1Nc1nc(Nc2ccc(N3CCN(C)CC3)c(C)c2)ncc1F [compound 208, (1S,2S)-5-fluoro-N4-(2-methoxycarbonylcyclopent-1-yl)-N2-[3-methyl-4-(4-methylpiperazino)phenyl]-2,4-pyrimidinediamine] |  |
| > 10000 | > 10000 | Cc1cc(Nc2ncc(F)c(N[C@H]3CCC[C@@H]3C(=O)O)n2)ccc1N1CCN(C)CC1 [compound 209, (1S,2S)-5-fluoro-N4-(2-hydroxycarbonylcyclopent-1-yl)-N2-[3-methyl-4-(4-methylpiperazino)phenyl]-2,4-pyrimidinediamine] |  |
| 1000 to 10000 | 1000 to 10000 | CCOC(=O)[C@@H]1CCC[C@H]1Nc1nc(Nc2ccc(N3CCN(C)CC3)c(C)c2)ncc1F [compound 210, (1R,2R)-N4-(2-Ethoxycarbonylcyclopent-1-yl)-5-fluoro-N2-{3-methyl-4-(4-methylpiperazino)phenyl]-2,4-pyrimidinediamine] |  |
| > 10000 | > 10000 | Cc1cc(Nc2ncc(F)c(N[C@@H]3CCC[C@H]3C(=O)O)n2)ccc1N1CCN(C)CC1 [compound 211, (1R,2R)-5-fluoro-N4-(2-hydroxycarbonylcyclopent-1-yl)-N2-[3-methyl-4-(4-methylpiperazino)phenyl]-2,4-pyrimidinediamine] |  |
| 1000 to 10000 | 1000 to 10000 | Cc1ccc(Nc2ncc(F)c(NC3CCCC3C(N)=O)n2)cc1 (stereo not drawn) [compound 212, (cis)-N4-(2-Carboxamidocyclopent-1-yl)-5-fluoro-N2-(4-methylphenyl)-2,4-pyrimidinediamine] |  |
| 100 to 1000 | 100 to 1000 | Cc1cc(Nc2ncc(F)c(NC3CCCC3C(N)=O)n2)cc(C)c1O (stereo not drawn) [compound 213, (cis)-N4-(2-Carboxamidocyclopent-1-yl)-N2-(3,5-dimethyl-4-hydroxyphenyl)-5-fluoro-2,4-pyrimidinediamine] |  |
| 1000 to 10000 | 1000 to 10000 | COC(=O)[C@H]1CC[C@@H](Nc2nc(Nc3ccc(N4CCN(C)CC4)c(C)c3)ncc2F)C1 [compound 214, (1R,3S)-N4-(3-Methoxycarbonylcyclopent-1-yl)-5-fluoro-N2-[3-methyl-4-(4-methylpiperazin-1-yl)phenyl]-2,4-pyrimidinediamine] |  |
| 1000 to 10000 | 1000 to 10000 | COC(=O)[C@@H]1CC[C@H](Nc2nc(Nc3ccc(N4CCN(C)CC4)c(C)c3)ncc2F)C1 [compound 215, (1S,3R)-N4-(3-Methoxycarbonylcyclopent-1-yl)-5-fluoro-N2-[3-methyl-4-(4-methylpiperazin-1-yl)phenyl]-2,4-pyrimidinediamine] |  |
| > 10000 | > 10000 | Cc1cc(Nc2ncc(F)c(N[C@H]3CC[C@@H](C(=O)O)C3)n2)ccc1N1CCN(C)CC1 [compound 219, (1S,3R)-N4-(3-Carboxycyclopent-1-yl)-fluoro-N2-[3-methyl-4-(4-methylpiparazin-1-yl)phenyl]-2,4-pyrimidinediamine] |  |
| 1000 to 10000 | 1000 to 10000 | Cc1cc(Nc2ncc(F)c(N[C@H]3CC[C@H](C(N)=O)C3)n2)ccc1N1CCN(C)CC1 [compound 220, (1S,3S)-N4-(3-Aminocarbonylcyclopent-1-yl)-5-fluoro-N2-[3-methyl-4-(4-methylpiperazin-1-yl)phenyl]-2,4-pyrimidinediamine] |  |
| 100 to 1000 | 100 to 1000 | Cc1cc(Nc2ncc(F)c(N[C@@H]3C=C[C@H](C(N)=O)C3)n2)ccc1N1CCN(C)CC1 [compound 225, (1S,4R)-cis-N4-(4-Aminocarbonylcyclopent-2-ene-1-yl)-5-fluoro-N2-[3-methyl-4-(4-methylpiperazin-1-yl)phenyl]-2,4-pyrimidinediamine] |  |
| 1000 to 10000 | 1000 to 10000 | Cc1cc(Nc2ncc(F)c(N[C@H]3C=C[C@@H](C(N)=O)C3)n2)ccc1N1CCN(C)CC1 [compound 226, (1R,4S)-cis-N4-(4-Aminocarbonylcyclopent-2-ene-1-yl)-5-fluoro-N2-[3-methyl-4-(4-methylpiperazin-1-yl)phenyl]-2,4-pyrimidinediamine] |  |
| 100 to 1000 | 1000 to 10000 | Cc1cc(Nc2ncc(F)c(NC3CC=CC3)n2)ccc1N1CCN(C)CC1 [compound 237, N4-(Cyclopent-3-ene-1-yl)-5-fluoro-N2-[3-methyl-4-(4-methylpiperazin-1-yl)phenyl]-2,4-pyrimidinediamine] |  |
